{
  "source": "patent US9445588B2",
  "about": "“Methods for increasing oil palm yield” (Valent BioSciences Corporation, priority 2014, dated 2016)",
  "key": {"oil palm fruit": {"test_system": "oil palm fruit", "settings": "preharvest application to attached bunches of oil palm fruit; cited from earlier work"}, "oil palm [1]": {"test_system": "oil palm", "assay": "Field study, repeat bunch-directed preharvest application of AVG every 10 days (Example 1)", "format": "in vivo, oil palm (bi-clonal DxP palms)", "procedure": "Plant material: A field study was executed in a plantation in Malaysia to compare the effects of repeat bunch-directed applications of AVG to the untreated control (UTC). In this study, AVG was provided in a formulation as AVG-HCl at a concentration of 20% w/wt. For both treatments, 148 palms per block with 4 rows per block covering about 1.1 hectare were used. The bi-clonal DxP palms were 3 to 4 years old.\nTreatment application: A motorized mist blower was used to apply AVG (500 ppm, at 600 mL/palm or 300 mg/palm/application) to the lower and most mature rows of bunches of each palm.\nThe time required for 360 degree spray application around each palm was about 30 seconds. Sprays were applied every 10 days which coincided with harvest frequency in this block. Treatments were applied from September to November 2013.\nHarvest: Harvest picks occurred every 10 days. Bunches were harvested at the point of initial fruit drop. At harvest, UTC bunches had lost an average of 34.8 fruit/bunch and the AVG-treated bunches had lost 33.9 fruits/bunch. Bunch weight results were recorded over six harvests picks for the 10 representative palms that were tagged for each treatment.\nOil content: At each harvest pick beginning with the fourth harvest pick interval, bunches were selected and individually bagged, tagged, and transferred to the laboratory for determination of oil content. Bunch samples from each harvest were analyzed in the laboratory for oil content using standard methods (Blaak, et al., 1963, J. West African Institute of Oil Palm Research, 4:146-155).\nOil yield: Oil yield was determined as kg oil/bunch=oil content*bunch wt. […] Oil yield was 2.85 kg/bunch for the AVG treatment and 2.56 kg/bunch for the UTC."}, "oil palm [2]": {"test_system": "oil palm", "assay": "Second field study, repeat preharvest AVG sprays every 20 days, harvest 10 days after treatment (Example 2)", "format": "in vivo, oil palm (bi-clonal DxP palms)", "settings": "AVG 500 ppm", "procedure": "Plant material: A second field study was executed in a plantation in Malaysia to compare the effects of repeat broadcast directed bunch applications of AVG to the untreated control (UTC). For both treatments, 148 palms per block with 4 rows per block covering about 1.1 ha were used. The bi-clonal DxP palms were 3 to 4 years old. Treatment application: A motorized mist blower was used to apply AVG (500 ppm at 600 mL/plant or 300 mg/palm/application) to the lower and most mature rows of bunches of each palm plant. The time required for 360 degree spray application per palm plant was about 30 seconds. Treatments were applied every 20 days and harvests of treated palms were 10 days after treatments. Untreated bunches were harvested every 10 days. Treatments were applied from September to November 2013. Oil yield: Oil yield was determined as kg oil/bunch=oil content*bunch wt. […] Oil yield was 2.80 kg/bunch for the AVG treatment and 2.51 kg/bunch for the UTC."}, "oil palm [3]": {"test_system": "oil palm", "assay": "Oil quality (free fatty acid content) of oil from AVG-HCl treated oil palms", "format": "in vivo", "settings": "Rath and Shashikant 2014, Valent BioSciences technical information"}},
  "data": [
    {"smiles": "O=P(O)(O)CCCl", "note": "[ethephon, 2-chloroethyl phosphonic acid]", "values": [
      {"measurement": "Increase in oil content", "setting": "oil palm fruit", "value": 7, "unit": "%"}
    ]},
    {"smiles": "NCCO/C=C/[C@H](N)C(=O)O", "note": "(stereo in doubt) [AVG, [S]-trans-2-amino-4-(2-aminoethoxy)-3-butenoic acid]", "values": [
      {"measurement": "Average Oil Content", "setting": "oil palm [1]; AVG 500 ppm, 600 mL/palm (300 mg/palm/application), sprays every 10 days, bunches from fourth harvest pick on", "value": 0.284, "unit": "oil wt/bunch wt"},
      {"measurement": "Oil Yield (oil content*bunch wt)", "setting": "oil palm [1]; AVG 500 ppm, 600 mL/palm, sprays every 10 days", "value": 2.85, "unit": "kg oil/bunch"},
      {"measurement": "Average Bunch Weight", "setting": "oil palm [1]; AVG 500 ppm, 600 mL/palm, sprays every 10 days, six harvest picks, 10 tagged palms", "value": 10.02, "unit": "kg/bunch"},
      {"measurement": "Average fruit lost per bunch at harvest", "setting": "oil palm [1]; bunches harvested at the point of initial fruit drop, UTC 34.8 fruit/bunch", "value": 33.9, "unit": "fruits/bunch"},
      {"measurement": "Average Bunch Weight", "setting": "oil palm [2]; 600 mL/plant", "value": 9.36, "unit": "kg/bunch"},
      {"measurement": "Oil Yield (oil content*bunch wt)", "setting": "oil palm [2]; 600 mL/plant", "value": 2.80, "unit": "kg oil/bunch"},
      {"measurement": "Average Oil Content", "setting": "oil palm [2]; 600 mL/plant (300 mg/palm/application)", "value": 0.299, "unit": "oil wt/bunch wt"}
    ]},
    {"smiles": "Cl.NCCO/C=C/[C@H](N)C(=O)O", "note": "[AVG-HCl]", "values": [
      {"measurement": "Free fatty acid content of the oil", "setting": "oil palm [3]", "value": "did not have increased free fatty acid content"}
    ]}
  ]
}
